Measurements as given in patent publication US4927831A, “Spiro-isoquinoline-pyrrolidine tetrones and analogs thereof useful as aldose reductase inhibitors” (American Home Products, priority 1989, dated 1990).
Several values for one entry are separate records, joined by “and”; a condition that tells them apart may be missing. Identical values can stand only once. Like-named read-outs stand apart in the source and are kept apart here.

Legend:
[1] = tested on: dulcitol accumulation in the lens; assay: % lowering of dulcitol accumulation in lens (L) of galactosemic rats; assay type: in vivo, Sprague-Dawley; parameters: key: NS: statistically nonsignificant change; conditions: 4 days
Text: (§1) The aldose reductase inhibiting property of the compounds of this invention and the utilization of the compounds in preventing, diminishing and alleviating diabetic complications are demonstrable in experiments using galactosemic rats, see Dvornik et al., Science, 182, 1146 (1973). Such experiments are exemplified hereinbelow after the listing of the following general comments pertaining to these experiments:
(§2) (a) Four or more groups of six male rats, 50-70 g, Sprague-Dawley strain, were used. The first group, the control group, was fed a mixture of laboratory chow (rodent Laboratory Chow, Purina) and glucose at 20% (w/w %) concentration. An untreated galactosemic group was fed a similar diet in which galactose was substituted for glucose. The third group was fed a diet prepared by mixing a given amount of the test compound with the galactose containing diet. The concentration of galactose in the diet of the treated groups was the same as that for the untreated galactosemic group.
(§3) (b) After four days, the animals were killed by euthanization. Both the lens and sciatic nerve were removed, weighed and stored frozen for polyol determination.
(§4) (c) The polyol determination was performed by a modification of the procedure of M. Kraml and L. Cosyns, Clin. Biochem., 2,373 (1969). Only two minor reagent changes were made: (a) The rinsing mixture was an aqueous 5% (w/v) trichloroacetic acid solution and (b) the stock solution was prepared by dissolving 25 mg of dulcitol in 100 ml of an aqueous trichloroacetic acid solution. [N.B.: For each experiment the average value found in the tissue from rats fed the glucose diet was subtracted from the individual values found in the corresponding tissue in galactose-fed rats to obtain the amount of polyol accumulated.] The aldose reductase inhibiting effects of the compounds of formula (I) were also tested by employing an in vitro testing procedure similar to that described by S. Hayman and J.H. Kinoshita, J. Biol. Chem., 240,877 (1965). In the present case the procedure of Hayman and Kinoshita was modified in that the final chromatography step was omitted in the preparation of the enzyme from bovine lens.
(§5) The figures under L and N represent the percentage decrease of dulcitol accumulation in the tissues of the lens and sciatic nerve, respectively, for treated rats as compared to untreated rats.

[2] = tested on: dulcitol accumulation in the sciatic nerve; assay: % lowering of dulcitol accumulation in sciatic nerve (N) of galactosemic rats; assay type: in vivo, Sprague-Dawley; parameters: key: NS: statistically nonsignificant change; conditions: 4 days
Text: as §1, §2, §3, §4, §5

aldose reductase = target: T1, aldose reductase (Bos taurus, UniProt P16116); assay: in vitro aldose reductase inhibition (modified Hayman and Kinoshita; enzyme from bovine lens); assay type: biochemical; conditions: read-out: % Inhibition IN VITRO; for inhibition at 0.1 µM: 10^-7 M
T1 construct: preparation of the enzyme from bovine lens; from tissue; host or cells: bovine lens
Method: Only two minor reagent changes were made: (a) The rinsing mixture was an aqueous 5% (w/v) trichloroacetic acid solution and (b) the stock solution was prepared by dissolving 25 mg of dulcitol in 100 ml of an aqueous trichloroacetic acid solution. [N.B.: For each experiment the average value found in the tissue from rats fed the glucose diet was subtracted from the individual values found in the corresponding tissue in galactose-fed rats to obtain the amount of polyol accumulated.] […] In the present case the procedure of Hayman and Kinoshita was modified in that the final chromatography step was omitted in the preparation of the enzyme from bovine lens. […] The figures under L and N represent the percentage decrease of dulcitol accumulation in the tissues of the lens and sciatic nerve, respectively, for treated rats as compared to untreated rats.

Compound	% Lowering Dulcitol Accumulation IN VIVO, L (lens) ([1]; 0.5 mg/kg in diet)	% Lowering Dulcitol Accumulation IN VIVO, L (lens) ([1]; 1.0 mg/kg in diet)	% Lowering Dulcitol Accumulation IN VIVO, N (sciatic nerve) ([2]; 0.5 mg/kg in diet)	% Lowering Dulcitol Accumulation IN VIVO, N (sciatic nerve) ([2]; 1.0 mg/kg in diet) [%]	inhibition at 0.04 µM (aldose reductase; 4 × 10^-8 M) [%]	inhibition at 10 µM (aldose reductase; 10^-5 M) [%]	inhibition at 1 µM (aldose reductase; 10^-6 M) [%]	inhibition at 0.1 µM (aldose reductase) [%]	inhibition at 1 µM (aldose reductase) [%]	inhibition at 10 µM (aldose reductase) [%]	also measured
O=C1CC2(C(=O)N1)C(=O)N(Cc1ccc(Br)cc1F)C(=O)c1cccc(F)c12 (centres unmarked) [[2-[(4-Bromo-2-fluorophenyl)methyl]-5-fluoro]spiro[isoquinoline-4(1H),3'-pyrrolidine]-1,2',3,5'(2H)-tetrone]	14.2%	23.9%	52.5%	77.0	44	98	98	92	–	–	–
O=C1CC2(C(=O)N1)C(=O)N(Cc1ccc(Br)cc1F)C(=O)c1ccc(Cl)cc12 (centres unmarked) [[2-[(4-Bromo-2-fluorophenyl)methyl]-6-chloro]spiro[isoquinoline-4(1H),3'-pyrrolidine]-1,2',3,5'(2H)-tetrone]	–	–	–	–	8	97	92	55	–	–	% Lowering Dulcitol Accumulation IN VIVO, L (lens) ([1]; 0.6 mg/kg in diet): 9%; % Lowering Dulcitol Accumulation IN VIVO, N (sciatic nerve) ([2]; 0.6 mg/kg in diet): 29%
O=C1CC2(C(=O)N1)C(=O)N(Cc1ccc(Br)cc1F)C(=O)c1ccc(F)cc12 (centres unmarked) [[2-[(4-Bromo-2-fluorophenyl)methyl]-6-fluoro]spiro[isoquinoline-4(1H),3'-pyrrolidine]-1,2',3,5'(2H)-tetrone]	NS	–	82.9% and 92.1%	–	–	–	–	–	96	97	% Lowering Dulcitol Accumulation IN VIVO, L (lens) ([1]; 0.3 mg/kg in diet): NS; % Lowering Dulcitol Accumulation IN VIVO, L (lens) ([1]; 0.9 mg/kg in diet): NS; % Lowering Dulcitol Accumulation IN VIVO, N (sciatic nerve) ([2]; 0.3 mg/kg in diet): 39.7%; % Lowering Dulcitol Accumulation IN VIVO, N (sciatic nerve) ([2]; 0.9 mg/kg in diet): 93.5%; inhibition at 0.04 µM (aldose reductase): 38%
O=C1CC2(C(=O)N1)C(=O)N(Cc1ccc(Br)cc1F)C(=O)c1cc(Cl)ccc12 (centres unmarked) [[2-[(4-Bromo-2-fluorophenyl)methyl]-7-chloro]spiro[isoquinoline-4(1H),3'-pyrrolidine]-1,2',3,5'(2H)-tetrone]	–	–	–	–	25	–	92	42	–	96	% Lowering Dulcitol Accumulation IN VIVO, L (lens) ([1]; 0.6 mg/kg in diet): NS; % Lowering Dulcitol Accumulation IN VIVO, N (sciatic nerve) ([2]; 0.6 mg/kg in diet): 63%
O=C1CC2(C(=O)N1)C(=O)N(Cc1ccc(Br)cc1F)C(=O)c1cc(F)ccc12 (centres unmarked) [[2-[(4-Bromo-2-fluorophenyl)methyl]-7-fluoro]spiro[isoquinoline-4(1H),3'-pyrrolidine]-1,2'3,5'(2H)-tetrone]	NS	NS	NS	50.2	42	95	–	92	93	–	–
COc1ccc2c(c1)C(=O)N(Cc1ccc(Br)cc1F)C(=O)C21CC(=O)NC1=O (centres unmarked) [[2-[(4-Bromo-2-fluorophenyl)methyl]-7-methoxy]spiro[isoquinoline-4(1H),3'-pyrrolidine]-1,2',3,5'(2H)-tetrone]	–	–	–	–	72	97	–	90	96	–	% Lowering Dulcitol Accumulation IN VIVO, L (lens) ([1]; 25.7 mg/kg in diet): 45.3%; % Lowering Dulcitol Accumulation IN VIVO, N (sciatic nerve) ([2]; 25.7 mg/kg in diet): 88.1%
O=C1CC2(C(=O)N1)C(=O)N(Cc1ccc(Br)cc1F)C(=O)c1c(F)cccc12 (centres unmarked) [[2-[(4-Bromo-2-fluorophenyl)methyl]-8-fluoro]spiro[isoquinoline-4(1H),3'-pyrrolidine]-1,2',3,5'(2H)-tetrone]	NS	16.3%	50.6%	57.6	43	–	–	92	94	96	–
COc1cc2c(cc1Br)C1(CC(=O)NC1=O)C(=O)N(Cc1ccc(Br)cc1F)C2=O (centres unmarked) [[6-Bromo-2-[(4-bromo-2-fluorophenyl)methyl]-7-methoxy]spiro[isoquinoline-4(1H),3'-pyrrolidine]-1,2',3,5'(2H)-tetrone]	NS	–	55.2%	–	70	98	97	88	–	–	% Lowering Dulcitol Accumulation IN VIVO, L (lens) ([1]; 26.4 mg/kg in diet): 48.8%; % Lowering Dulcitol Accumulation IN VIVO, N (sciatic nerve) ([2]; 26.4 mg/kg in diet): 89.5%
